{"source": "patent US11220491B2", "about": "“Photoprotective compositions containing Malassezia-derived compounds and/or chemical analogs thereof” (Versicolor Technologies, LLC, priority 2018, dated 2022)", "key": {"[1]": {"tested_on": "MelanoDerm™ Skin Model", "assay": "MelanoDerm assay, pigmentation of tissues (Example 12)", "assay_type": "cell-based, human", "conditions": "day 7; 200 μM and 50 μM", "description": "The MelanoDerm™ Skin Model will be exposed to the test article for a total of 7 days. […] (Berridge et al., 1996).\nTen and 25 microliters, respectively, of each test article will be applied to each tissue. Twenty five microliters of the positive and negative controls, respectively, will be applied to each tissue.\nThe definitive assay will include a negative control and a positive control. The MelanoDerm™ tissues designated to the assay negative control will be treated with 25 μL of sterile, deionized water. Twenty five microliters of 1% Kojic acid (prepared in sterile, deionized water and filtered at the time of preparation) will be used to dose the tissues designated to the assay positive control. The 1% Kojic acid will be stored in a tube covered with aluminum foil until used within 2 hours of preparation. The negative and positive control exposure times will be identical to those used for the test articles.\nThe exact procedures used to collect images of the tissues will be specified in the study workbook and report.\nThe trial will be conducted over a 7-day timeframe.\nThe exact procedures used to collect images of the tissues will be specified in the study workbook and report. Then, the viability of the tissues will be determined by MTT reduction as indicated below."}, "[2]": {"tested_on": "UV-induced erythema of the subject's skin", "assay": "In vivo photoprotection proof of concept, UVB irradiation of treated skin sites (Example 38)", "parameters": "species or system human", "excerpt": "The Malassezin 1% formulation used in this study contained the following ingredients: Water (aqua)—65.939%; Dimethyl isosorbide—20.000%; Olive Oil Glycereth-8 Esters—3.000%; Glycerin—2.991%; Coconut Alkanes—2.700%; Hydroxyethyl Acrylate/Sodium Acryloyldimethyl Taurate Copolymer—1.700%; Malassezin—1.000%; Pentylene Glycol—1.000%; Phenoxyethanol—0.640%; Coco-Caprylate/Caprate—0.300%; Caprylyl Glycol—0.200%; Chlorphenesin—0.160%; Sorbitan Isostearate—0.140%; Tocopherol—0.100%; Polysorbate 60-0.080%; and Disodium EDTA—0.050%.\nA Skin Type IV […] was included in this Proof of Concept study.\nA template of 6 squares was placed on the lower left back (1.5 cm×1.5 cm) of the test subject.\nTwenty-four hours after irradiation, the subject returned for MED assessment.\nA second right lower square was treated twice daily from day 4 to day 7, and a third medial square for one application on day 7. The product vehicle was applied for 7 days twice daily on the left back. The subject returned to the research center for irradiation on day 7. Each test site was irradiated with 120 mJ of UVB exposure. The subject returned in 24 hours for assessment of phototoxicity/photoprotection.\nThe subject continued the experiment, receiving Malassezin 1% for a total of 14 days. […]"}, "[3]": {"tested_on": "primary human melanocytes", "conditions": "cited from earlier work"}, "[4]": {"biological_target": "T1, arylhydrocarbon receptor (AhR) (Homo sapiens, UniProt P35869)", "T1 sequence (P35869 11-848)": "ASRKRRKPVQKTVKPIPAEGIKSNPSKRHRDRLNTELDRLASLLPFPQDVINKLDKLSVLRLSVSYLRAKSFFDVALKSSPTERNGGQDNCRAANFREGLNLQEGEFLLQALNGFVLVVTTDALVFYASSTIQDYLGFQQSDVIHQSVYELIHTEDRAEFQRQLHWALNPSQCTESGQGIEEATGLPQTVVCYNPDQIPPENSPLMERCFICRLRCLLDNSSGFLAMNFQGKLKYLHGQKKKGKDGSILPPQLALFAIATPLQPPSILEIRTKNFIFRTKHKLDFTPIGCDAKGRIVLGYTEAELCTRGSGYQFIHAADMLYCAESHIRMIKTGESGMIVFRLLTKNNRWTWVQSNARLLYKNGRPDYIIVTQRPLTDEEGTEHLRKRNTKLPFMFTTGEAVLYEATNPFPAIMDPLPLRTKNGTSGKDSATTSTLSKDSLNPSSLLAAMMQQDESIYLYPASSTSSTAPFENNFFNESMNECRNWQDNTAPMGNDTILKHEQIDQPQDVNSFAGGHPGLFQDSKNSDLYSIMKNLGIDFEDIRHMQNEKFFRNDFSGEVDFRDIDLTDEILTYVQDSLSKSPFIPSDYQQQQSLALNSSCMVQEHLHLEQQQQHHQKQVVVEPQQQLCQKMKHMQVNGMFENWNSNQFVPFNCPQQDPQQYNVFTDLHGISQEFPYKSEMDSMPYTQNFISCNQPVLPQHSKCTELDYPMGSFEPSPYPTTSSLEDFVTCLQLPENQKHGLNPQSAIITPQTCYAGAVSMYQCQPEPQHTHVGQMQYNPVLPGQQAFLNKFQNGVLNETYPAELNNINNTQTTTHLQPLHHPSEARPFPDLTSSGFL", "assay": "HepG2-AhR-Luciferase assay", "conditions": "EC50 (uM), Table 2; 24 hours of treatment"}, "[5]": {"tested_on": "WM115 cells", "assay": "Annexin V assay (Example 16)", "assay_type": "cell-based", "conditions": "100 uM", "description": "(§1) Cells were harvested and the cell number was determined using a Countess Cell Counter. The cells were diluted with culture medium to the desired density.\n(§2) Test compounds were dissolved in DMSO to 30 mM stock. […] After the indicated incubation time, the plates were removed from the incubator for detection.\n(§3) For the Annexin V assay, plates were removed from the incubator and culture media was removed. […] Plates were read using ImageXpress Nano."}, "[6]": {"tested_on": "B16F1 cells", "assay": "Annexin V assay (Example 16)", "assay_type": "cell-based", "conditions": "100 uM", "description": "as §1, §2, §3"}, "[7]": {"tested_on": "MeWo cells", "assay": "Annexin V assay (Example 16)", "assay_type": "cell-based", "conditions": "100 uM", "description": "as §1, §2, §3"}, "[8]": {"biological_target": "T1, arylhydrocarbon receptor (AhR)", "parameters": "HepG2 cells stably transfected with an AhR-responsive luciferase reporter gene plasmid; host or cells: HepG2-AhR-Luc (HepG2 stably transfected with an AhR-responsive luciferase reporter plasmid)", "conditions": "cited from earlier work"}, "[9]": {"tested_on": "Caspase 3/7 in WM115 cells", "assay": "Caspase-Glo 3/7 assay (Example 16)", "assay_type": "cell-based", "conditions": "100 uM", "description": "as §1, §2\n(§4) Caspase-Glo 3/7 reagents also were thawed and equilibrated to room temperature before the experiment."}, "[10]": {"tested_on": "Caspase 3/7 in MeWo cells", "assay": "Caspase-Glo 3/7 assay (Example 16)", "assay_type": "cell-based", "conditions": "100 uM", "description": "as §1, §2, §4"}}, "note": "Entries after “also recorded” stand apart in the source; their conditions may differ."}
{"smiles": "O=Cc1c(Cc2c[nH]c3ccccc23)[nH]c2ccccc12", "note": "[Malassezin, malassezin]", "values": [{"measurement": "pigmentation of tissues", "setting": "[1]", "result": "reduced pigmentation"}, {"measurement": "UV protection, conclusion of the study", "setting": "[2]", "result": "UV-protective properties"}, {"measurement": "apoptosis induction", "setting": "[3]", "result": "induces apoptosis"}, {"measurement": "EC50", "setting": "[4]", "result": 13.4, "unit": "µM"}, {"measurement": "cell death (Annexin V staining)", "setting": "[5]", "result": "induced cell death"}, {"measurement": "cell death (Annexin V staining)", "setting": "[6]", "result": "induced cell death"}, {"measurement": "cell death (Annexin V staining)", "setting": "[7]", "result": "induced cell death"}, {"measurement": "AhR agonism", "setting": "[8]", "result": "known agonist; also recorded: aryl hydrocarbon receptor agonist"}, {"measurement": "Caspase 3/7 activation", "setting": "[9]", "result": "activated Caspase 3/7"}, {"measurement": "Caspase 3/7 activation", "setting": "[10]", "result": "activated Caspase 3/7"}]}
